Data on eight compounds can be found in ChEMBL document CHEMBL1148237, “Bioisosteric replacement of anilide with benzoxazole: potent and orally bioavailable antagonists of VLA-4” (Bioorg Med Chem Lett, 2004).

In data set [1] the target is T1, Integrin alpha-4/beta-1 (Homo sapiens, UniProt P05556+P13612). Kind of data set: Inhibition of [Ca2+]/Mg2+ unactivated state of very late antigen 4 (VLA-4). The format is protein-complex assay.
Data set [2] can be described thus: Clearance of compound in rat was evaluated. The format is ADME, organism-based. Conditions: in vivo.
A short description of data set [3]: Bioavailability in rat. The class given is ADME, organism-based. Conditions: in vivo.
Data set [4] concerns the target T2, Integrin alpha-4/beta-7 (Homo sapiens, UniProt P13612+P26010).
T2 sequence (P13612 whole entry): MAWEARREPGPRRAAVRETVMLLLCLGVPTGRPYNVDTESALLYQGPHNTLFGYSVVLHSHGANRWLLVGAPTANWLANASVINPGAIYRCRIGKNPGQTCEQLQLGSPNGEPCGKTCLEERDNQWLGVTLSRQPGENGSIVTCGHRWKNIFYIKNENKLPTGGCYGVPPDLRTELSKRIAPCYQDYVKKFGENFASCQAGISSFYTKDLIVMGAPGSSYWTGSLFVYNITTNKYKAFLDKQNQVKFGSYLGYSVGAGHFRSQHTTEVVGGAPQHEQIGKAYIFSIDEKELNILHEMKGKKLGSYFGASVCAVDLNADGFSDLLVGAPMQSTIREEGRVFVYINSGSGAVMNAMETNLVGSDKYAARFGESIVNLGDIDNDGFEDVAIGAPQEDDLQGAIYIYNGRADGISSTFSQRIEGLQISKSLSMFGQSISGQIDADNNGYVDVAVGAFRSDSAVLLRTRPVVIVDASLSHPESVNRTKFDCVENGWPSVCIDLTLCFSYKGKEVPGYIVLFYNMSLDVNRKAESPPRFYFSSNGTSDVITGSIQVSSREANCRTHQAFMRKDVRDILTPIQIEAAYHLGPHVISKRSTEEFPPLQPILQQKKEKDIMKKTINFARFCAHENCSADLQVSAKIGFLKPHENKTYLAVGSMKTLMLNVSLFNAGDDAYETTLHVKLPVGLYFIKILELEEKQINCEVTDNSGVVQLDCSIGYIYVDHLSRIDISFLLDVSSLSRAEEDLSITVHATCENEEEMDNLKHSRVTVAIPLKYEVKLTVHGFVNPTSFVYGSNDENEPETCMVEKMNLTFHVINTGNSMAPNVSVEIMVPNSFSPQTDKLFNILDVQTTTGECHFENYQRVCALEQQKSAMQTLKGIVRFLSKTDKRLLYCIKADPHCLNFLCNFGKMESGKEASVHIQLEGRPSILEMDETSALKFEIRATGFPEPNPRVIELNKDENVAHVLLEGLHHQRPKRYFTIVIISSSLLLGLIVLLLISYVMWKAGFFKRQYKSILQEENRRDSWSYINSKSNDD
T2 sequence (P26010 whole entry): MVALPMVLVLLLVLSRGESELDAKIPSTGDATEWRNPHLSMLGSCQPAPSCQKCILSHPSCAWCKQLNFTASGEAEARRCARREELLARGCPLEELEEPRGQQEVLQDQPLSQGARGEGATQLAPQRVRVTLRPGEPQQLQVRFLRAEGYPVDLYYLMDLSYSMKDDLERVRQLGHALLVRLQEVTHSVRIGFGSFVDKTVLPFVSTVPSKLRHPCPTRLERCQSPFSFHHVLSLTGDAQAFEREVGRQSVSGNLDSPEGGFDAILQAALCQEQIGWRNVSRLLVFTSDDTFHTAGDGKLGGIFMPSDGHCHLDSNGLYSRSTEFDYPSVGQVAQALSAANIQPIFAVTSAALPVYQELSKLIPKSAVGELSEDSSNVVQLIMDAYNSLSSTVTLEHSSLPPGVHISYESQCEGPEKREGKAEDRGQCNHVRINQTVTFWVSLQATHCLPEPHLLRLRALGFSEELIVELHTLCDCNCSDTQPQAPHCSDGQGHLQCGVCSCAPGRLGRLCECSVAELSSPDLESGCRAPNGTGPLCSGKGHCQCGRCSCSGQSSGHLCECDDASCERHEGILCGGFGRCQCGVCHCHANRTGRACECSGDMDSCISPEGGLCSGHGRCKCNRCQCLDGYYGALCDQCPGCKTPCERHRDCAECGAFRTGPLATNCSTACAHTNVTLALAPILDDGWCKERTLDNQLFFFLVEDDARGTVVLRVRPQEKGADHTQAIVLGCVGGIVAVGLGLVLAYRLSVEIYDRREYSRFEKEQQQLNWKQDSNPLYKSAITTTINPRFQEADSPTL
The experiment in a line: Inhibition of Mn2+ activated state of alpha4-beta7 integrin. The format is protein-complex assay.

The target in data set [5] is T1, Integrin alpha-4/beta-1. The experiment in a line: Inhibition of Mn2+ activated state of very late antigen 4 (VLA-4). The class given is protein-complex assay.

SMILES strings stand for the structures.

T1 sequence (P05556 whole entry, one chain of several): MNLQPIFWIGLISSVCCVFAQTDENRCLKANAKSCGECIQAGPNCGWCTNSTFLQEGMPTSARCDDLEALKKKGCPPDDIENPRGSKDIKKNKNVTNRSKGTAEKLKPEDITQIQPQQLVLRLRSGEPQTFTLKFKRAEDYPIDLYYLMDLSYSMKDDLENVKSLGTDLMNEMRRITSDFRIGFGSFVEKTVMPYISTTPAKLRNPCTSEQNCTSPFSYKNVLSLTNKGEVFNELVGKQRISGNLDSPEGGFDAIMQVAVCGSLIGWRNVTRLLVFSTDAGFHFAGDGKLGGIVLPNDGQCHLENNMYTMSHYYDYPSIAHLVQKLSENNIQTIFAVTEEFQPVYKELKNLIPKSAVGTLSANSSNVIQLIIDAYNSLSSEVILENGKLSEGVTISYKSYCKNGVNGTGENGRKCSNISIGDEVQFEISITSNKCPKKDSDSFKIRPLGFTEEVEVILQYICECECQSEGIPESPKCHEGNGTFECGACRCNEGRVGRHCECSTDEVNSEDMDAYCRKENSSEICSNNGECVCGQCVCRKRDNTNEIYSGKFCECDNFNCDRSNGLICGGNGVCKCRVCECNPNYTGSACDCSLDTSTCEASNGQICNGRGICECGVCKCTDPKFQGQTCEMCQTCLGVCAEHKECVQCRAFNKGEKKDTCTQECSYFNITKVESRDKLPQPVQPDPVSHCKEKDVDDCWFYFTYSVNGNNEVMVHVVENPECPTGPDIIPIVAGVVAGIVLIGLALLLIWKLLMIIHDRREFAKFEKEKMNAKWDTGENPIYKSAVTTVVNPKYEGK

For orientation: IC50 means the point on the concentration scale where inhibition reaches its midpoint. A high value points to weaker potency. In general, clearance refers to a measure of how efficiently the substance is removed, as volume per time. Low readings indicate inefficient removal, high ones efficient removal. `COc1cccc(OC)c1-c1ccc(C[C@H](NC(=O)[C@]2(C)CCN2S(=O)(=O)c2cc(Cl)cc(Cl)c2)C(=O)O)cc1` had an IC50 in data set [1] of 0.27 nM. The same compound registered a clearance in data set [2] of 97 mL/min/kg.
The bioavailability is the share of a dose that reaches the circulation, judged against a reference dose that is usually intravenous. `O=C(Nc1ccc(C[C@H](NC(=O)[C@@H]2CCN2S(=O)(=O)c2cc(Cl)cc(Cl)c2)C(=O)O)cc1)c1c(Cl)cccc1Cl` came in with a bioavailability in data set [3] of 0.7%. Also, the results for the IC50 in data set [1], in data set [4] and in data set [5] were 0.31 nM, 22 nM and 0.27 nM, respectively. In addition, the clearance in data set [2] amounted to 33 mL/min/kg.
`O=C(O)[C@H](Cc1ccc2oc(-c3c(Cl)cccc3Cl)nc2c1)NC(=O)[C@@H]1CCN1S(=O)(=O)c1cc(Cl)cc(Cl)c1` showed a bioavailability in data set [3] of 15%. The IC50 came to 3.6 nM in data set [1], 179 nM in data set [4] and 0.74 nM in data set [5]. The clearance in data set [2] was 24 mL/min/kg.
`O=C(N[C@@H](Cc1ccc2[nH]c(-c3c(Cl)cccc3Cl)nc2c1)C(=O)O)c1c(Cl)cccc1Cl`: the bioavailability in data set [3] came out at 1.2%. Also, the results for the IC50 in data set [1], in data set [4] and in data set [5] were 22 nM, 3.2 nM and 0.69 nM, respectively. This compound displayed a clearance in data set [2] of 24 mL/min/kg.
Regarding `O=C(O)[C@H](Cc1ccc2[nH]c(-c3c(Cl)cccc3Cl)nc2c1)NC(=O)[C@@H]1CCN1S(=O)(=O)c1cc(Cl)cc(Cl)c1`, the bioavailability in data set [3] was determined as 0.3%. Moreover, the IC50 in data set [1] worked out at 1.8 nM; in data set [4], 105 nM; in data set [5] it was 0.54 nM. In addition, in data set [2], the clearance was 21 mL/min/kg.
`O=C(O)[C@H](Cc1ccc2nc(-c3c(Cl)cccc3Cl)oc2c1)NC(=O)[C@@H]1CCN1S(=O)(=O)c1cc(Cl)cc(Cl)c1` yielded a bioavailability in data set [3] of 8%. The IC50 is 33 nM in data set [1], 1690 nM in data set [4] and 1.7 nM in data set [5]. Moreover, the clearance in data set [2] amounted to 24 mL/min/kg.
In data set [3], `O=C(N[C@@H](Cc1ccc2oc(-c3c(Cl)cccc3Cl)nc2c1)C(=O)O)c1c(Cl)cncc1Cl` showed a bioavailability of 25%. For the same compound, the results for the IC50 in data set [1], in data set [4] and in data set [5] were 21 nM, 4.3 nM and 0.34 nM, respectively. The clearance in data set [2] was determined as 25 mL/min/kg.
The compound `O=C(N[C@@H](Cc1ccc2oc(-c3c(Cl)cccc3Cl)nc2c1)C(=O)O)c1c(Cl)cccc1Cl` displayed a bioavailability in data set [3] of 20%. The IC50 turned out to be 52 nM in data set [1], 5.5 nM in data set [4] and 0.79 nM in data set [5]. In data set [2], the clearance turned out to be 9 mL/min/kg.
